Marks after values point to notes of the source that are not given here.
Legend:
[1] = Clinical single dose and 5-day repeated dose study in 57 cancer subjects; format: in vivo, human
Method: (2-((4-hydroxyphenyl)amino)pyrid-3-yl)-4-methoxybenzenesulfonamide was evaluated in 57 cancer subjects in single dose (16 subjects) and 5-day repeated dose regimens (41 subjects). The doses administered in the single dose segment were 80 to 480 mg/m^2/day. In the 5-day repeated dose regimen (2-((4-hydroxyphenyl)amino)pyrid-3-yl)-4-methoxybenzenesulfonamide was given at 30 to 240 mg/m^2/day for a single cycle. […] Adverse drug reactions from the single dose and 5-day repeated dose segments included nausea and vomiting, diarrhea, epigastric pain, ileus and evidence of peripheral neuropathy. For the single dose segment, the dose limiting toxicity (DLT) was Grade 3 peripheral neuropathy in 1 of 5 subjects at 480 mg/m^2/day. In the 5-day repeated dose regimen the dose limiting toxicities were Grade 3 peripheral neuropathy in 1 of 4 subjects at 210 mg/m^2/day and Grade 4 intestinal paralysis in 1 of 4 subjects at 210 mg/m^2/day and in 1 of 6 subjects at 240 mg/m^2/day.

[2] = Clinical 21-day QD regimen, MTD determination; format: in vivo
[3] = Calu-6 flank xenograft model in male scid mice, HPM with docetaxel (Example 1); format: in vivo; conditions: male, scid, mouse, in vivo
Method: (§1) Male scid mice (Charles River Labs.) were injected subcutaneously with 0.2 mL of 2×10^6 Calu-6 cells (1:1 with matrigel) on study day 0. The cellular implantation site was the right flank, and all mice were ear tagged. On day 13, tumors were size matched to 247 mm^3 and animals were placed into the therapy groups outlined in the study design below. All treatments were initiated on day 13 post tumor inoculation. The tumors were measured with calipers 2 times per week after tumors were palpable. Tumor volumes were calculated according to the formula V=L×W^2/2 (V: volume, mm^3; L: length, mm. W: width, mm). Mouse group weights were taken 2 times per week to monitor weight loss from toxicity or excessive tumor burden. The mice were humanely euthanized when the tumor volumes reached a predetermined size. The study design was as follows:
(§2) 1. HPM vehicle and docetaxel at 20 mg/kg/day.
(§3) 2. HPM vehicle and docetaxel at 10 mg/kg/day.
(§4) 3. HPM at 100 mg/kg/day and docetaxel vehicle.
(§5) 4. HPM at 75 mg/kg/day and docetaxel vehicle.
(§6) 5. HPM at 100 mg/kg/day and docetaxel at 20 mg/kg/day.
(§7) 6. HPM at 100 mg/kg/day and docetaxel at 10 mg/kg/day.
(§8) 7. HPM at 75 mg/kg/day and docetaxel at 20 mg/kg/day.
(§9) 8. HPM at 75 mg/kg/day and docetaxel at 10 mg/kg/day.
(§10) 9. HPM vehicle and docetaxel vehicle.
(§11) HPM was dosed orally on a (q.d.×5, 5 days off)×2 schedule. The drug was formulated in 1% HCl, 4% ethanol, and 95% D5W. Docetaxel was dosed intravenously, (q.10d.)×2 and formulated in saline.

[4] = Clinical safety review, adverse events by grade; format: in vivo, human
Method: For 134 patients tested, at doses of about 200 mg QD, 250 mg QD, 300 mg QD, 125 mg BID, 150 mg BID, and 175 mg BID, 16 reported anemia, of which 11 were Grades I or II and 5 were Grades (III or IV); 1 reported Grade I or II alpoecia; 8 reported Grade I or II neutropenia; and none reported fluid retention, for which Grade I is defined as mild, Grade II is defined as moderate, Grade III is defined as severe, Grade IV is defined as life threatening.

[5] = system: MiaPaCa2 pancreatic; experiment: MiaPaCa2 pancreatic xenograft model, combination with gemcitabine; format: in vivo; conditions: in combination with gemcitabine
[6] = system: Calu-6 lung carcinoma; experiment: Staged human tumor xenograft, Calu-6; format: in vivo; conditions: oral 75 mg/kg/d QD, d 10-14, 20-24
From the text: (§12) (2-((hydroxyphenyl)amino)pyrid-3-yl)-4-methoxybenzenesulfonamide inhibited the growth of a variety of human tumor xenografts that were allowed to grow into established tumors prior to the initiation of treatment. As summarized below, activity was seen against established tumors derived from colon, breast and lung carcinomas. (2-((4-hydroxyphenyl)amino)pyrid-3-yl)-4-methoxybenzenesulfonamide was also active against a human pancreatic tumor xenograft grown in the orthotopic site.

[7] = Clinical 7-day QD regimen, MTD determination; format: in vivo
Method: In the 7-day QD regimen, the 250 mg QD dose has been determined to be the MTD, as dose limiting toxicities of peripheral neuropathy/ileus were reported in 2 of 6 subjects at the 300 mg QD dose.

[8] = system: MDA-MB-468 breast carcinoma; experiment: Staged human tumor xenograft, MDA-MB-468; format: in vivo
From the text: as §12

[9] = system: M5076 murine reticulum cell sarcoma; conditions: for response of the model to the drug / ILS: comparator drugs, dose not given
[10] = system: C26 colon tumors; experiment: C26 colon tumors grown in the flank of CDF-1 mice; format: in vivo
[11] = system: HT-29 colon carcinoma; experiment: Staged human tumor xenograft, HT-29; format: in vivo; conditions: oral 75 mg/kg/d QD, d 10-14, 20-24
From the text: as §12

[12] = system: HCT-15 human colon carcinoma; experiment: HCT-15 human colon carcinoma xenografts; format: in vivo; conditions: for efficacy in inhibiting tumor growth: MDR positive line
From the text: HCT-15 is a human colon carcinoma derived cell line. It is MDR positive, and expresses both mutant p53 and oncogenic K-ras. The HCT-15 cell line has one of the highest levels of mdr-1/P-glycoprotein expression of cells from the NCI tumor cell line panel.

[13] = system: NCI-H460 human non-small cell lung carcinoma; experiment: NCI-H460 xenograft model; format: in vivo; conditions: for activity: comparators
From the text: NCI-H460 is a human non-small cell lung carcinoma derived cell line. It is MDR negative, has wild type p53, and contains an oncogenic K-ras mutation.

[14] = system: Calu-6 lung; experiment: Calu-6 lung subcutaneous flank xenografts in male nude mice, HPM with cisplatin (Example 6); format: in vivo; conditions: 10 mg/kg/day i.p., q.d × 1
Method: In a non-small cell lung cancer study, tumor cells were inoculated s.c. into male nude mice on day 0. On day 10, mice bearing established tumors were size matched at about 233 mm^3 and placed into the following groups: • 1. […]., 5 days on, 5 days off ×2) • 2. PM-75 mg/kg/day (p.o., q.d., 5 days on, 5 days off×2) • 3. PM-0 mg/kg/day (p.o., q.d., 5 days on, 5 days off ×2) • 4. […] Cisplatin 0 mg/kg/day (ip, qd ×1) • 6. […] Combination Therapy Vehicles

[15] = system: Calu-6 cells; experiment: Calu-6 flank xenograft model in male scid mice, HPM with docetaxel (Example 1); format: in vivo; conditions: docetaxel q.10d. at 20 mg/kg/day
Method: as §1, §2, §3, §4, §5, §6, §7, §8, §9, §10, §11

[16] = system: MDA-MB-468 breast; experiment: MDA-MB-468 breast subcutaneous flank xenografts in female nude mice, HPM with docetaxel (Example 3); format: in vivo; conditions: 33.3 mg/kg/day i.v., q.d × 1
Method: Tumor cells derived from serially passaged tumor fragments were inoculated s.c. in female nude mice on day 0. On day 10, mice bearing established tumors were size matched at about 231 mm^3 and divided into the following groups:
1. HPM at 100 mg/kg/day (p.o., q.d., 5 days on, 5 days off ×2)
2. HPM at 75 mg/kg/day (p.o., q.d., 5 days on, 5 days off ×2)
3. HPM at 0 mg/kg/day (p.o., q.d., 5 days on, 5 days off ×2)
4. Docetaxel at 33.3 mg/kg/day (i.v., q.d. ×1)
5. Docetaxel at 0 mg/kg/day (i.v., q.d. ×1)
6. Combination therapy: HPM at 100 mg/kg/day and docetaxel at 33.3 mg/kg/day
7. Combination therapy: HPM at 75 mg/kg/day and docetaxel at 33.3 mg/kg/day

[17] = molecular target: biotinylated bovine brain tubulin; conditions: competition of [3H]colchicine
[18] = 5-day repeated dose regimen, 210 mg/m^2/day
[19] = 134 patients, 200-300 mg QD, 125-175 mg BID

COc1ccc(S(=O)(=O)Nc2cccnc2Nc2ccc(O)cc2)cc1 [ABT-751, N-(2-((4-Hydroxyphenyl)amino)pyridin-3-yl)-4-methoxybenzenesulfonamide]
dose limiting toxicity: Grade 3 peripheral neuropathy, subjects [1, 18]: 1 of 4 | dose limiting toxicity: Grade 4 intestinal paralysis, subjects [1, 18]: 1 of 4 | dose limiting toxicity: Grade 4 intestinal paralysis, subjects ([1]; 5-day repeated dose regimen, 240 mg/m^2/day): 1 of 6 | AUC versus dose ([1]; range of 30 to 480 mg/m^2/day): increased proportionally with dose | accumulation ([1]; range of 30 to 480 mg/m^2/day): no apparent accumulation | dose limiting toxicity: Grade 3 peripheral neuropathy, subjects ([1]; single dose segment, 480 mg/m^2/day): 1 of 5 | MTD ([2]; QD regimen given for 21 days): 200 mg | dose limiting toxicities of fatigue, anorexia and suspect small bowel obstruction, subjects ([2]; human, in vivo, 21 days): 2/3 | MTD ([3]; po, HPM orally (q.d.×5, 5 days off)×2, mice): 100 mg/kg/day | patients who reported Grade I or II alopecia [4, 19]: 1 | patients who reported Grade I or II neutropenia [4, 19]: 8 | patients who reported anemia [4, 19]: 16 | patients who reported fluid retention [4, 19]: none | patients with anemia of Grades I or II [4, 19]: 11 | patients with anemia of Grades III or IV [4, 19]: 5 | myelosuppression, renal or hepatic toxicity ([4]; review of the safety data of the three studies): no significant myelosuppression, renal or hepatic toxicity | antitumor activity compared to single agent alone [5]: increase in antitumor activity | % ILS [6]: 58% | MTD ([7]; 7-day QD regimen): 250 mg | dose limiting toxicities of peripheral neuropathy/ileus, subjects ([7]; human, in vivo, 7 days): 2 of 6 | % T/C ([8]; oral 50 mg/kg/d QD, d 1-21): 46% | % T/C ([8]; oral 75 mg/kg/d QD, d 10-14, 20-24): 33% | % T/C ([8]; oral 100 mg/kg/d QD, d 10-14, 20-24): 25% | ILS (percent increase in life span) ([9]; 150 mg/kg orally once a day for 5 days): 42% | approximate MTD ([9]; orally once a day for 5 days): ~150 mg/kg | antitumor activity ([10]; 5-day schedule): only marginally active | antitumor activity ([10]; extended dosing, equivalent to BCNU at the MTD): significant antitumor response | % ILS [11]: 50% | % ILS ([12]; 50 mg/kg/d PO, QD, days 1-8): 34% | T/C (no. trials) ([12]; 50 mg/kg/d PO, QD, days 1-8): 50(2) | efficacy in inhibiting tumor growth [12]: effective in inhibiting tumor growth | T/C, mean tumor volume at day 13 ([13]; day 13 vs vehicle control): 58% | ILS (delay in tumor growth) ([13]; in vivo): 32%

N.N.[Cl][Pt][Cl] [Cisplatin, cisplatin]
% TGD^a: median % TGD increase compared to vehicle treated controls in time to 1 cc [14]: 71*** %

O=P1(N(CCCl)CCCl)NCCCO1 (centres unmarked) [cyclophosphamide]
response of the model to the drug [9]: sensitive

CC(=O)O[C@@]12CO[C@@H]1C[C@H](O)[C@@]1(C)C(=O)[C@H](O)C3=C(C)[C@@H](OC(=O)[C@H](O)[C@@H](NC(=O)OC(C)(C)C)c4ccccc4)C[C@@](O)([C@@H](OC(=O)c4ccccc4)[C@H]21)C3(C)C [docetaxel]
MTD ([3]; intravenous, docetaxel on a q.10d.×2 schedule, mice): 25 mg/kg/day | maximum wt loss [15]: 8% | % TGD^a: median % TGD increase compared to vehicle treated controls in time to 1 cc [16]: 67*** %

COc1cccc2c1C(=O)c1c(O)c3c(c(O)c1C2=O)C[C@@](O)(C(=O)CO)C[C@@H]3O[C@H]1C[C@H](N)[C@H](O)[C@H](C)O1 [doxorubicin]
ILS [9]: 13%

CC(=O)O[C@H]1C(=O)[C@@]2(C)[C@H]([C@H](OC(=O)c3ccccc3)[C@]3(O)C[C@H](OC(=O)[C@H](O)[C@@H](NC(=O)c4ccccc4)c4ccccc4)C(C)=C1C3(C)C)[C@]1(OC(C)=O)CO[C@@H]1C[C@@H]2O [paclitaxel, reference compound]
response of the model to the drug [9]: resistant | antitumor activity ([10]; comparator, dose not given): not efficacious | efficacy in inhibiting tumor growth [12]: not efficacious | activity [13]: lacked activity

CC[C@]1(O)C[C@@H]2CN(CCc3c([nH]c4ccccc34)[C@@](C(=O)OC)(c3cc4c(cc3OC)N(C)[C@H]3[C@@](O)(C(=O)OC)[C@H](OC(C)=O)[C@]5(CC)C=CCN6CC[C@]43[C@@H]65)C2)C1 [vinblastine]
Ki [17]: > 100 µM

CC[C@]1(O)C[C@H]2CN(CCc3c([nH]c4ccccc34)[C@@](C(=O)OC)(c3cc4c(cc3OC)N(C=O)[C@H]3[C@@](O)(C(=O)OC)[C@H](OC(C)=O)[C@]5(CC)C=CCN6CC[C@]43[C@@H]65)C2)C1 [vincristine, reference compound]
ILS [9]: 17% | efficacy in inhibiting tumor growth [12]: not efficacious | activity [13]: lacked activity
